Tested on: fresh peripheral blood mononuclear cells (PBMC) / HCV-specific CD4+ T-lymphocytes
Assay: Lymphocyte proliferation assay (3H-thymidine incorporation) of PBMC stimulated with HCV peptides
Format: cell-based, human (patients with acute hepatitis C)
Settings: for IF (impact factor): peptide 10 μg/ml, 5 days, calculated from n1 (reactions with 3<SI<6), n2 (SI≧6) and m tests, m≧15
Description: To solve the task, a unique patient collective was identified, namely patients with acute hepatitis C who reach a lasting or at least temporary virus elimination in over 50% of cases. In order to test all possible CD4+ T-cell epitopes, the whole virus was covered with overlapping synthetic peptides from 15 to 20 amino acids long. A standardised lymphocyte proliferation assay was used as the test system. In order to determine both the degree of conservation between various virus sub-types and also the binding promiscuity as regards the relevant genetic background of the patients, a formula was defined based on the frequency of detection of an epitope and the strength of the immune reaction in question.
The stimulation index (SI) is normally calculated from the raw data of a proliferation assay and represents the multiplication factor of the measured sample in comparison with the control. An SI of 3 is regarded as significant.
A special patient collective was chosen and examined for HCV specific CD4+ T-cell epitopes relevant for the healing of the disease. The patient collective, namely patients with acute hepatitis C, is difficult to identify, since, on the one hand, they occur with a frequency of approx. 1:100,000 in the German population and, on the other hand, only T-lymphocytes were tested in the acute phase of the disease. This means a considerable limitation in the number of usable samples. Finally, within this patient collective, only patients were considered who were able to clear the virus spontaneously or to control it temporarily (this is only approx. 60% of the patients with acute hepatitis C), since only here has the immune system successfully taken action against the virus.
As the test system, the so-called “proliferation assay” was carried out according to the following protocol: After density gradient centrifugation on Ficoll gradients of heparinised blood, the fresh peripheral blood mononuclear cells (PBMC) were isolated and suspended in a culture medium (RPMI1640, Gibco). 50 μl of this cell suspension (concentration of 1×10^6 cells per ml) were placed on sterile 96-well culture plates. The cells were stimulated by the addition of the peptides. The final concentration of the peptides was 10 μg/ml. The cell culture plates were cultivated over 5 days at 37° C. and 5% CO2, then mixed with ^3H-thymidine and the incorporation of the radioactive ^3H was measured as a measure of the cell stimulation.
In our studies, only peptide reactions were regarded as significant whose stimulation index (SI) was greater than 3 (3× higher compared with the controls, or the irrelevant peptides).
The impact factor (IF) is based on a points system which not only uses the frequency of relevant reactions, i.e. stimulation index (SI) greater than 3, as normal, but also takes into account the strength of these reactions.
[formula] where • n1 is the sum of the reactions with 3<SI<6, • n2 is the sum of the reactions with SI≧6 and • m is the number of tests against the peptide in question, whereby m≧15.

SSSASQLSAPSLKATCTTHH [EP014]
IF (impact factor): 23.3

GAQITGHVKNGSMRIVGPKT [EP009]
IF (impact factor): 23.3

ARSLTPCTCGSSDLY (Hepatitis C virus) [EP002]
IF (impact factor): 27.6

MWKCLIRLKPTLHGP (Hepatitis C virus) [EP004]
IF (impact factor): 24.1

TSMLTDPSHITAETAKRRLA [EP013]
IF (impact factor): 26.7

THYVPESDAAARVTQILSSL [EP006]
IF (impact factor): 26.7

GPRLGVRATRKTSER (Hepatitis C virus) [EP001]
IF (impact factor): 24.0

PLLESWKDPDYVPPVVHGCP [EP016]
IF (impact factor): 26.7

DVVCCSMSYTWTGALITPCA [EP017]
IF (impact factor): 23.3

SSDLYLVTRHADVIP (Hepatitis C virus) [EP003]
IF (impact factor): 23.2

VLVDILAGYGAGVAG (Hepatitis C virus) [EP005]
IF (impact factor): 24.1

EVTRVGDFHYVTGMTTDNVK [EP010]
IF (impact factor): 21.9

CPCQVPAPEFFTEVDGVRLH [EP011]
IF (impact factor): 23.3

FTEVDGVRLHRYAPACKPLL [EP012]
IF (impact factor): 28.1

REVSVAAEILRKSRKFPPAM (Hepatitis C virus) [EP015]
IF (impact factor): 25.0

CSGSWLRDVWDWICTVLTDF [EP008]
IF (impact factor): 23.3

TITQLLKRLHQWINEDCSTP [EP007]
n1, sum of the reactions with 3<SI<6 (of 16 independent tests): 4
n2, sum of the reactions with SI≧6 (of 16 independent tests): 2
IF (impact factor): 43.8
impact factor (worked example in text, m=16 tests): 43.75

Source: US7270820B2, “CD4+ T-lymphocyte-specific hepatitis C virus epitopes” (Immusystems GmbH, priority 2002, dated 2007)
